Measurements as given in patent publication US12398121B2 (Nuvation Bio Inc., priority 2018, dated 2025).
Like-named read-outs stand apart in the source and are kept apart here.

Legend:
[1] = target: Human recombinant PARP2 (Homo sapiens, UniProt Q9UGN5); experiment: RBC HotSpot PARP2 radioisotope-based filter binding assay; type: biochemical
Procedure: The following methods are for evaluating the in vitro biology properties of the test articles. • a. RBC HotSpot Poly(ADP-ribose) Polymerases 1 (PARP1) and Poly(ADP-ribose) Polymerases 2 (PARP2) Assays: The assay principle is radioisotope-based filter binding assay where incorporation of radioisotope-labeled NAD^+ into the substrate captured on filter is detected after washout free NAD^+. Data were analyzed using Excel and GraphPad Prism software for IC50 curve fits. Each assay was conducted with PJ34 as a positive control. • i. PARP1 assay: Human recombinant PARP1 at a final concentration of 2.5 nM was combined with histone H4 (20 μM) and test articles at various concentrations in reaction buffer (50 mM Tris-HCL, pH 8.0, 50 mM NaCl, 10 mM MgCl2, 1 mM DTT, 1% DMSO, and 20 μg/mL activated DNA). The solution was inoculated for 20 min at room temperature and the reaction initiated by adding [adenylate-^32P]-Nicotinamide Adenine Dinucleotide, ^32P-NAD^+ at a final concentration of 10 μM. After incubation for 2 hour at room temperature, the reaction mixture was filtered and washed with 0.75% phosphoric acid for radioactivity detection. • ii. PARP2 assay: Human recombinant PARP2 at a final concentration of 2.5 nM was combined with histone H3 (20 μM) and test articles at various concentrations in reaction buffer (50 mM Tris-HCL, pH 8.0, 50 mM NaCl, 10 mM MgCl2, 1 mM DTT, 1% DMSO, and 20 μg/mL activated DNA). The solution was inoculated for 20 min at room temperature and the reaction was initiated by adding [adenylate-^32P]-Nicotinamide Adenine Dinucleotide, ^32P-NAD^+ at a final concentration of 10 μM. After incubation for 2 hour at room temperature, the reaction mixture was filtered and washed with 0.75% phosphoric acid for radioactivity detection. • b. AR binding assay: AR in LNCaP cytosol was used for determining the binding affinity of test articles and the reference compound—progesterone (Sigma, Cat: E2785, St. Louis, MO). IC50s were determined using 8 concentrations/compound. Cytosol was plated at 200 μg/well (100 μL) into a 96-well conical polypropylene plate (Agilent, Cat: 5042-1385, Santa Clara, CA) and mixed with 3 μL of test compound. After adding 100 μL of ^3H-methyltrienolone (PerkinElmer, Cat: NET590250UC, San Jose, CA), the plate was sealed and shaken at 300 rpm at 4° C. for 24 hours. Post incubation, 100 μL of radioligand adsorption buffer containing 10 mM Tris-HCl, pH 7.4; 1.5 mM EDTA; 1 mM DTT; 0.25% charcoal; 0.0025% dextran was added to individual well. Plate was shaken for 15 min at 4′C followed by centrifugation at 3000 rpm for 30 min at 4° C. 150 μL of supernatant was transferred into scint-tube (PerkinElmer, Cat: 6000192) and mixed with 2 mL of Ultima Gold Cocktail (PerkinElmer, Cat: 6013329). Radioactivity was counted using a TriCarb 2910 TR scintillation counter (PerkinElmer). Inhibition of the radioactivity by test articles were calculated using the equation below: % Inhibition=(1−(Assay well−Average_LC)/(Average_HC−Average_LC))×100%.

[2] = tested on: 22RV1 cells; experiment: Cell proliferation assay (CellTiter Glo), 22RV1; type: cell-based; settings: Homo sapiens, 22Rv1, 72 h, read-out: 22RV1 IC50
Procedure: IC50 values were calculated and graphed using the model “log(inhibitor) vs. response—Variable slope” included in GraphPad Prism 5 (San Diego, CA). The Ki values were further calculated using the equation below where [L] was the radioligand concentration (1 nM) using in this study. Kd value was 0.332 nM. Ki=IC50/(1+[L]/Kd) c. AR transactivation: Human AR cloned into a CMV vector backbone was used for the transactivation study. HEK-293 cells were plated at 80,000 cells per well of a 24 well plate in DME+5% csFBS. Twenty four hours later, the cells were transfected using Lipofectamine (Invitrogen, Carlsbad, CA) with 0.25 μg GRE-LUC, 0.01 μg CMV-LUC (renilla luciferase) and 25 ng of the AR in OPTIMEM medium. The cells were treated 24 hrs after transfection with various ligands (10^−12 to 10^−5 M final concentrations) and luciferase assay were performed 48 hours after transfection. Firefly values were normalized to renilla luciferase values and the values were represented as relative light units (RLU). Agonist and antagonist assays for the test article were performed in the absence and in the combination with 0.1 nM R1881, respectively. Data were represented as EC50 (for agonists) and IC50 (for antagonists) obtained from four parameter logistics curve. Cell culture and proliferation assays: LNCaP, PC-3, 22RV1, MCF-7, HT-29, and HCT-116 cells were procured from American Type Culture Collection (ATCC). Cells were cultured in medium recommended by the ATCC. Cell culture medium was obtained from Fisher scientific (Waltham, MA) and serum was obtained from Hyclone (San Angelo, TX).
Cells were plated at varying density in the respective growth medium in 96 well plates. 24 hr later, cells were treated, in triplicate or quadruplicate, with test articles prepared in a range of concentrations by series dilution of DMSO stock solutions in growth medium and incubated for three to seven days. The number of viable 22RV1 and HT-29 cells was measured using CellTiter Glo assay (CTG, Promega, Madison, WI) after three days of treatment. The other types of cancer cells were re-treated at three or four days and the number of viable cells was measured using CTG assay after a total treatment time of six or seven days. Cell viability data were plotted using GraphPad Prism (GraphPad Software, Inc., San Diego, CA). In addition, a nonlinear regression model with a sigmoidal dose response and variable slope within GraphPad Prism was used to calculate the IC50 value of individual test articles. Additional cell proliferation assays: Other cancer cell lines are tested in a cell proliferation assay. For example, SK-OV-3 or OVCAR3 ovarian cancer cells are tested. Cells are cultured in medium recommended by the supplier (e.g., ATCC or JCRB Cell Bank), at 37° C. in a 5% CO2 environment. For the proliferation assay, cells are plated in the growth medium in 96 well plates. Seeding density is adjusted according to the cell type. 24 hr later, cells are treated, in triplicate or quadruplicate, with test articles prepared in a range of concentrations by series dilution of DMSO stock solutions in growth medium, and typically incubated for three to seven days, with test article-containing medium replaced after three or four days. The number of viable cells is measured using CellTiter Glo assay (CTG, Promega, Madison, WI) or similar. Cell viability data are plotted using GraphPad Prism (GraphPad Software, Inc., San Diego, CA). In addition, a nonlinear regression model with a sigmoidal dose response and variable slope within GraphPad Prism is used to calculate the IC50 value of individual test articles. Similarly, HEK-293 and HeLa calls can also be tested by methods known in the art. • f. Nuclear translocation: LNCaP cells are plated on coverslips in 24 well plates in growth medium. Twenty-four hours after plating, medium is changed to RPMI+1% csFBS and the cells are maintained in this medium for two days. Medium is replaced again and the cells are treated. […]

[3] = 2.5 nM enzyme, histone H3, 10 μM 32P-NAD+, read-out: PARP2 IC50
[4] = cell growth inhibition, three days of treatment

Human recombinant PARP2, sequence (Q9UGN5 whole entry): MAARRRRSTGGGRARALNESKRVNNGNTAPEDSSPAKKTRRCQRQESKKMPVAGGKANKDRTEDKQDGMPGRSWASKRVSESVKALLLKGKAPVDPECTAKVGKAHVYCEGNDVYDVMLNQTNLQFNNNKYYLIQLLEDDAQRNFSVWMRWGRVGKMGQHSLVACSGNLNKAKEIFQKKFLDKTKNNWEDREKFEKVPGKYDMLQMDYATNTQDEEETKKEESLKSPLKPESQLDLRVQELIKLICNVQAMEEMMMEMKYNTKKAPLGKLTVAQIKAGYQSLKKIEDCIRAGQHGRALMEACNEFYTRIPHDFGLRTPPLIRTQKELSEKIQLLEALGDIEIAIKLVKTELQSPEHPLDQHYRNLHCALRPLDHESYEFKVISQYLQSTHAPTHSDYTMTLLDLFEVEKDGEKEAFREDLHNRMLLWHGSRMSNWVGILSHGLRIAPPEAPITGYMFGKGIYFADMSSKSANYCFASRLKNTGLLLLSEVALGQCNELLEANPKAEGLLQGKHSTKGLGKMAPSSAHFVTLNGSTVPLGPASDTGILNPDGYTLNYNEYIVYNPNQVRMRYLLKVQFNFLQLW

Row | SMILES | IC50 [1] | IC50 [2] | IC50 [1, 3] | IC50 [2, 4]
1 | C[C@](O)(CS(=O)(=O)c1ccc(NCCN2CCN(C(=O)c3cc(Cc4n[nH]c(=O)c5ccccc45)ccc3F)CC2)cc1)C(=O)Nc1ccc(C#N)c(C(F)(F)F)c1 [Compound 1.99, (R)-N-(4-cyano-3-(trifluoromethyl)phenyl)-3-(4-(2-(4-(2-fluoro-5-((4-oxo-3,4-dihydrophthalazin-1-yl)methyl)benzoyl)piperazin-1-yl)ethylamino)phenylsulfonyl)-2-hydroxy-2-methylpropanamide] | 0.2 nM | 3600 nM |  | 
2 | C[C@]12CCC(=O)C[C@@H]1CC[C@@H]1[C@@H]2CC[C@]2(C)[C@@H](OCCOCC(=O)N3CCN(C(=O)c4cc(Cc5n[nH]c(=O)c6ccccc56)ccc4F)CC3)CC[C@@H]12 [Compound 1.104, 4-(3-(4-(2-(2-((5S,8R,9S,10S,13S,14S,17S)-10,13-dimethyl-3-oxohexadeca hydro-1H-cyclopenta[a]phenanthren-17-yloxy)ethoxy)acetyl)piperazine-1-carbonyl)-4-fluorobenzyl)phthalazin-1(2H)-one] |  |  | 0.3 nM | 1100 nM
3 | C[C@]12CCC(=O)C[C@@H]1CC[C@@H]1[C@@H]2CC[C@@]2(C)[C@H]1CC[C@@]2(O)c1cn(CC(=O)N2CCN(C(=O)c3cc(Cc4n[nH]c(=O)c5ccccc45)ccc3F)CC2)nn1 [Compound 1.107, 4-(4-fluoro-3-(4-(2-(4-((5S,8R,9S,10S,13S,14S,17S)-17-hydroxy-10,13-dimethyl-3-oxohexadecahydro-1H-cyclopenta[a]phenanthren-17-yl)-1H-1,2,3-triazol-1-yl)acetyl)piperazine-1-carbonyl)benzyl)phthalazin-1(2H)-one] |  |  | 0.1 nM | 1300 nM
4 | C[C@]12CCC(=O)C[C@@H]1CC[C@@H]1[C@@H]2CC[C@]2(C)[C@@H](OCC(=O)N3CCN(C(=O)c4cc(Cc5n[nH]c(=O)c6ccccc56)ccc4F)CC3)CC[C@@H]12 [Compound 1.110, 4-(3-(4-(2-((5S,8R,9S,10S,13S,14S,17S)-10,13-dimethyl-3-oxohexadecahydro-1H-cyclopenta[a]phenanthren-17-yloxy)acetyl)piperazine-1-carbonyl)-4-fluorobenzyl)phthalazin-1(2H)-one] |  |  | 0.2 nM | 840 nM
5 | C[C@]12CCC(O)C[C@@H]1CC[C@@H]1[C@@H]2CC[C@]2(C)[C@@H](OCCCCCC(=O)N3CCN(C(=O)c4cc(Cc5n[nH]c(=O)c6ccccc56)ccc4F)CC3)CC[C@@H]12 (stereo partly drawn) [Compound 1.111, 4-(4-fluoro-3-(4-(6-((5S,8R,9S,10S,13S,14S,17S)-3-hydroxy-10,13-dimethylhexadecahydro-1H-cyclopenta[a]phenanthren-17-yloxy)hexanoyl)piperazine-1-carbonyl)benzyl)phthalazin-1(2H)-one] |  |  | 0.2 nM | 890 nM
6 | C[C@]12CCC(F)(F)C[C@@H]1CC[C@@H]1[C@@H]2CC[C@]2(C)[C@@H](OCCCCCC(=O)N3CCN(C(=O)c4cc(Cc5n[nH]c(=O)c6ccccc56)ccc4F)CC3)CC[C@@H]12 [Compound 1.114, 4-(3-(4-(6-((5S,8R,9S,10S,13S,14S,17S)-3,3-difluoro-10,13-dimethylhexadecahydro-1H-cyclopenta[a]phenanthren-17-yloxy)hexanoyl)piperazine-1-carbonyl)-4-fluorobenzyl)phthalazin-1(2H)-one] |  |  | 1.9 nM | 1300 nM
7 | C[C@]12CCC(=O)C[C@@H]1CC[C@@H]1[C@@H]2CC[C@@]2(C)[C@H]1CC[C@@]2(O)C#CC(=O)N1CCN(C(=O)c2cc(Cc3n[nH]c(=O)c4ccccc34)ccc2F)CC1 [Compound 1.116, 4-(4-fluoro-3-(4-(3-((5S,8R,9S,10S,13S,14S,17S)-17-hydroxy-10,13-dimethyl-3-oxohexadecahydro-1H-cyclopenta[a]phenanthren-17-yl)propioloyl)piperazine-1-carbonyl)benzyl)phthalazin-1(2H)-one] |  |  | 0.2 nM | 2600 nM
8 | C[C@]12CCC(=O)C[C@@H]1CC[C@@H]1[C@@H]2CC[C@@]2(C)[C@H]1CC[C@@]2(O)C#CCN1CCN(C(=O)c2cc(Cc3n[nH]c(=O)c4ccccc34)ccc2F)CC1 [Compound 1.118, 4-(4-fluoro-3-(4-(3-((5S,8R,9S,10S,13S,14S,17S)-17-hydroxy-10,13-dimethyl-3-oxohexadecahydro-1H-cyclopenta[a]phenanthren-17-yl)prop-2-ynyl)piperazine-1-carbonyl)benzyl)phthalazin-1(2H)-one] |  |  | 1 nM | 9700 nM
9 | C[C@]12CCC(=O)C[C@@H]1CC[C@@H]1[C@@H]2CC[C@@]2(C)[C@H]1CC[C@@]2(O)CCCN1CCN(C(=O)c2cc(Cc3n[nH]c(=O)c4ccccc34)ccc2F)CC1 [Compound 1.119, 4-(4-fluoro-3-(4-(3-((5S,8R,9S,10S,13S,14S,17R)-17-hydroxy-10,13-dimethyl-3-oxohexadecahydro-1H-cyclopenta[a]phenanthren-17-yl)propyl)piperazine-1-carbonyl)benzyl)phthalazin-1(2H)-one] |  | 2900 nM | 0.3 nM | 
